Experimental data as given in ChEMBL document CHEMBL5543162, “Discovery of a Novel Orally Bioavailable FLT3-PROTAC Degrader for Efficient Treatment of Acute Myeloid Leukemia and Overcoming Resistance of FLT3 Inhibitors” (J Med Chem, 2024).
The source made the active and inactive calls. No cut-off for these calls is given here.

Assays:
[1] = system: Protein cereblon/Receptor-type tyrosine-protein kinase FLT3 (Homo sapiens), P36888+Q96SW2 [UNDEFINED MUTATION]; experiment: (§1) PROTAC activity at CRBN/FLT3-ITD mutant in human MV4-11 cells assessed as protein degradation by Western blot analysis; type: cell-based
[2] = target: Protein cereblon/Receptor-type tyrosine-protein kinase FLT3 (Homo sapiens, UniProt P36888+Q96SW2); experiment: as §1; type: cell-based
[3] = system: Protein cereblon/Receptor-type tyrosine-protein kinase FLT3 (Homo sapiens), P36888+Q96SW2 [UNDEFINED MUTATION]; experiment: PROTAC activity at CRBN/FLT3-ITD mutant in human MV4-11 cells assessed as decrease in S6K level at 20 nM by Western blot analysis; type: cell-based; settings: time <= 12.0 hrs, TDE = time-dependent effect
[4] = system: Protein cereblon/Receptor-type tyrosine-protein kinase FLT3 (Homo sapiens), P36888+Q96SW2 [UNDEFINED MUTATION]; experiment: PROTAC activity at CRBN/FLT3-ITD mutant in human MOLM-13 cells assessed as protein degradation incubated for 12 hrs by Western blot analysis; type: cell-based; settings: dose <= 20.0 nM
[5] = system: Protein cereblon/Receptor-type tyrosine-protein kinase FLT3 (Homo sapiens), P36888+Q96SW2 [UNDEFINED MUTATION]; experiment: PROTAC activity at CRBN/FLT3-ITD mutant in human MOLM-13 cells assessed as decrease in S6K level incubated for 12 hrs by Western blot analysis; type: cell-based; settings: dose <= 20.0 nM
[6] = system: Protein cereblon/Receptor-type tyrosine-protein kinase FLT3 (Homo sapiens), P36888+Q96SW2 [UNDEFINED MUTATION]; experiment: PROTAC activity at CRBN/FLT3-ITD mutant in human MOLM-13 cells assessed as decrease in ERK level incubated for 12 hrs by Western blot analysis; type: cell-based; settings: dose <= 20.0 nM
[7] = system: Protein cereblon/Receptor-type tyrosine-protein kinase FLT3 (Homo sapiens), P36888+Q96SW2 [UNDEFINED MUTATION]; experiment: PROTAC activity at CRBN/FLT3-ITD mutant in human MOLM-13 cells assessed as decrease in S6K level at 20 nM by Western blot analysis; type: cell-based; settings: time <= 12.0 hrs, TDE = time-dependent effect
[8] = system: Protein cereblon/Receptor-type tyrosine-protein kinase FLT3 (Homo sapiens), P36888+Q96SW2 [UNDEFINED MUTATION]; experiment: PROTAC activity at CRBN/FLT3-ITD mutant in human MV4-11 cells assessed as protein degradation at 100 nM incubated for 24 hrs by Western blot analysis; type: cell-based
[9] = system: Protein cereblon/Receptor-type tyrosine-protein kinase FLT3 (Homo sapiens), P36888+Q96SW2 [UNDEFINED MUTATION]; experiment: PROTAC activity at CRBN/FLT3-ITD mutant in human MV4-11 cells assessed as protein degradation at 100 nM incubated for 24 hrs followed by compound washout measured upto 48 hrs by Western blot analysis; type: cell-based; settings: time 72.0 hrs
MV4-11 [10] = experiment: Induction of apoptosis in human MV4-11 cells incubated for 24 hrs by Annexin V-FITC/PI staining based flow cytometry; type: functional, cell-based; settings: dose 25-100 nM
MOLM-13 = experiment: Induction of apoptosis in human MOLM-13 cells incubated for 24 hrs by Annexin V-FITC/PI staining based flow cytometry; type: functional, cell-based; settings: dose 25-100 nM
[11] = Half life in Sprague-Dawley rat at 1 mg/kg, iv measured for 24 hrs by LC-MS/MS analysis; type: ADME, organism-based; settings: in vivo
[12] = Tmax in Sprague-Dawley rat at 10 mg/kg, po measured for 24 hrs by LC-MS/MS analysis; type: ADME, organism-based; settings: in vivo
[13] = Half life in Sprague-Dawley rat at 10 mg/kg, po measured for 24 hrs by LC-MS/MS analysis; type: ADME, organism-based; settings: in vivo
[14] = Volume of distribution at steady state in Sprague-Dawley rat at 10 mg/kg, po measured for 24 hrs by LC-MS/MS analysis; type: ADME, organism-based; settings: in vivo
MV4-11 [15] = experiment: Antitumor activity against human MV4-11 cells xenografted in nu/nu mouse assessed as decrease in Ki67 level at 1.25 to 10 mg/kg, po administered daily for 2 weeks by IHC analysis; type: functional, organism-based; settings: dose 1.25-10 mg/kg
[16] = Toxicity in nu/nu mouse xenografted with human MV4-11 cells assessed as damage in spleen at 1.25 to 10 mg/kg, po administered daily for 2 weeks by H and E staining based analysis; type: organism-based; settings: in vivo, 336 h, dose 1.25-10 mg/kg
[17] = Toxicity in nu/nu mouse xenografted with human MV4-11 cells assessed as damage in lung at 1.25 to 10 mg/kg, po administered daily for 2 weeks by H and E staining based analysis; type: organism-based; settings: in vivo, 336 h, dose 1.25-10 mg/kg
[18] = Toxicity in nu/nu mouse xenografted with human MV4-11 cells assessed as damage in kidney at 1.25 to 10 mg/kg, po administered daily for 2 weeks by H and E staining based analysis; type: organism-based; settings: in vivo, 336 h, dose 1.25-10 mg/kg
MV4-11 [19] = experiment: Antitumor activity against human MV4-11 cells expressing luciferase xenografted in NSG mouse assessed as increase in animal survival at 2.5 mg/kg, po administered daily for 3 weeks and measured for 58 days; type: functional, organism-based; settings: time 58.0 day
Mus musculus = experiment: Anti-leukemic activity in NSG mouse xenografted with human MV4-11 cells expressing luciferase assessed as decrease in CD45+/CD33+ cells proportion in bone marrow at 1.25 to 10 mg/kg, po administered daily for 3 weeks; type: functional, organism-based; settings: dose 1.25-10 mg/kg
MV4-11 [20] = experiment: Antitumor activity against human MV4-11 cells xenografted with nude mouse assessed as decrease in tumor growth at 120 mg/kg, po administered daily measured after 3 days; type: functional, organism-based; settings: time 3.0 day
[21] = system: Protein cereblon/Receptor-type tyrosine-protein kinase FLT3 (Homo sapiens), P36888+Q96SW2 [UNDEFINED MUTATION]; experiment: PROTAC activity at CRBN/FLT3-ITD in human MV4-11 cells assessed as protein degradation by TMT-based global proteomic profiling analysis; type: cell-based
[22] = system: Protein cereblon/Receptor-type tyrosine-protein kinase FLT3 (Homo sapiens), P36888+Q96SW2 [UNDEFINED MUTATION]; experiment: PROTAC activity at CRBN/FLT3-ITD in human MV4-11 cells assessed as effect on PI3K-Akt signalling pathway by KEGG analysis; type: cell-based
BaF3 [23] = experiment: Antiproliferative activity against mouse Ba/F3 cells expressing FLT3-ITD D835Y mutant incubated for 48 hrs by CCK8 assay; type: functional, cell-based; settings: BaF3, 48 h
BaF3 [24] = experiment: Antiproliferative activity against mouse Ba/F3 cells expressing FLT3-ITD D835V mutant incubated for 48 hrs by CCK8 assay; type: functional, cell-based; settings: BaF3, 48 h
[25] = Stability in dog liver microsomes assessed as half life; type: ADME, Canis lupus familiaris, Microsome
[26] = Stability in rat liver microsomes assessed as intrinsic clearance; type: ADME, Microsome; settings: read-out: CLH
[27] = Stability in mouse liver microsomes assessed as intrinsic clearance; type: ADME, Microsome; settings: read-out: CLH
[28] = Stability in dog liver microsomes assessed as hepatic clearance; type: ADME, Canis lupus familiaris, Microsome
[29] = Stability in rat liver microsomes assessed as hepatic clearance; type: ADME, Microsome
CYP3A4/CYP3A5 = CYP3A4/CYP3A5 (Homo sapiens, UniProt P08684+P20815); experiment: Inhibition of CYP3A4/CYP3A5 (unknown origin) using testosterone as substrate; type: ADME, protein assay; settings: probe testosterone
Cytochrome P450 2B6 = target: T1, Cytochrome P450 2B6 (Homo sapiens, UniProt P20813); experiment: Inhibition of CYP2B6 (unknown origin); type: ADME
T1 sequence (P20813 whole entry): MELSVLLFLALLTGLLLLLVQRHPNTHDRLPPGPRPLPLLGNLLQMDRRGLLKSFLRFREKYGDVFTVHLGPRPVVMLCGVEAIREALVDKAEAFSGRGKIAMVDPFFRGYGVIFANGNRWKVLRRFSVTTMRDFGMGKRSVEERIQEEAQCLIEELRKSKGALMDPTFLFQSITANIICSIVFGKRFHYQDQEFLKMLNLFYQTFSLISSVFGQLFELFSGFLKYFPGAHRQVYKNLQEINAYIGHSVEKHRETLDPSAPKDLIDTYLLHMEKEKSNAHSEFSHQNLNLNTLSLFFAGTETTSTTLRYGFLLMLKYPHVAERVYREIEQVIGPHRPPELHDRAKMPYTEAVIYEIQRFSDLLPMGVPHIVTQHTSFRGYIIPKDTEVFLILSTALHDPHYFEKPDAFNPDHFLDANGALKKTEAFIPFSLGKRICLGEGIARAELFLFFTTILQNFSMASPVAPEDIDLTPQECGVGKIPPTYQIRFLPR

[30] = target: Voltage-gated inwardly rectifying potassium channel KCNH2 (Homo sapiens, UniProt Q12809); experiment: Inhibition of hERG; type: toxicity
Voltage-gated inwardly rectifying potassium channel KCNH2, sequence (Q12809 whole entry): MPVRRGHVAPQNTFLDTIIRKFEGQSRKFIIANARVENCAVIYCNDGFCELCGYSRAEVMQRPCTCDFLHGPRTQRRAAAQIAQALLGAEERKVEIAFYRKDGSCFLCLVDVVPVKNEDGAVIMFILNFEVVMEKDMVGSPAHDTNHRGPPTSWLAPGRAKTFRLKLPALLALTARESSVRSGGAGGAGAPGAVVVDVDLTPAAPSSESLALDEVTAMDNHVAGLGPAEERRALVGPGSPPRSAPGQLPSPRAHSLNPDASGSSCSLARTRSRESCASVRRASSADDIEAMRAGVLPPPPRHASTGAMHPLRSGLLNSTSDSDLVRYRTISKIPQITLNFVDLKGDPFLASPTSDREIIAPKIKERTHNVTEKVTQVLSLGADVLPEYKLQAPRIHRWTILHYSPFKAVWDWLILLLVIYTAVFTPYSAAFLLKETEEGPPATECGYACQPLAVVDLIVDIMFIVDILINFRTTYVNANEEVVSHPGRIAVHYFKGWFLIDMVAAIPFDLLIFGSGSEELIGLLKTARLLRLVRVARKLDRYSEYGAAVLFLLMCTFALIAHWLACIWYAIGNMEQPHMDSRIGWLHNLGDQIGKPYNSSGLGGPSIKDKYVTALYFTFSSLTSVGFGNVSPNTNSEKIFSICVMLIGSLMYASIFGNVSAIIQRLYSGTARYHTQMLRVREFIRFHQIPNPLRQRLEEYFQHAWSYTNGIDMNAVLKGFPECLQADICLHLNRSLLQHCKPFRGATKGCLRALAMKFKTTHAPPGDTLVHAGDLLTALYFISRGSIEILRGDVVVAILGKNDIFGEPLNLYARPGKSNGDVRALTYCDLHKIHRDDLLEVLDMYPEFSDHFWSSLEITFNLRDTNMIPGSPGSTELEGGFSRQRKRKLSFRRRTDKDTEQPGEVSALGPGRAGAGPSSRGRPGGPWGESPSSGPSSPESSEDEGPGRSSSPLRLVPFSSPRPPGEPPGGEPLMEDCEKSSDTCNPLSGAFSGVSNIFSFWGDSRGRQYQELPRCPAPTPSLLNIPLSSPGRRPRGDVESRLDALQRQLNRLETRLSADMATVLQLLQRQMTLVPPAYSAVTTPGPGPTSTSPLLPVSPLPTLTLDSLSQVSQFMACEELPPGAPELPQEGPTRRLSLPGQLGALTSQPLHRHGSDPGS

Protein cereblon/Receptor-type tyrosine-protein kinase FLT3 (Homo sapiens), P36888+Q96SW2 [UNDEFINED MUTATION], sequence (P36888 whole entry, looked up, stated change not applied): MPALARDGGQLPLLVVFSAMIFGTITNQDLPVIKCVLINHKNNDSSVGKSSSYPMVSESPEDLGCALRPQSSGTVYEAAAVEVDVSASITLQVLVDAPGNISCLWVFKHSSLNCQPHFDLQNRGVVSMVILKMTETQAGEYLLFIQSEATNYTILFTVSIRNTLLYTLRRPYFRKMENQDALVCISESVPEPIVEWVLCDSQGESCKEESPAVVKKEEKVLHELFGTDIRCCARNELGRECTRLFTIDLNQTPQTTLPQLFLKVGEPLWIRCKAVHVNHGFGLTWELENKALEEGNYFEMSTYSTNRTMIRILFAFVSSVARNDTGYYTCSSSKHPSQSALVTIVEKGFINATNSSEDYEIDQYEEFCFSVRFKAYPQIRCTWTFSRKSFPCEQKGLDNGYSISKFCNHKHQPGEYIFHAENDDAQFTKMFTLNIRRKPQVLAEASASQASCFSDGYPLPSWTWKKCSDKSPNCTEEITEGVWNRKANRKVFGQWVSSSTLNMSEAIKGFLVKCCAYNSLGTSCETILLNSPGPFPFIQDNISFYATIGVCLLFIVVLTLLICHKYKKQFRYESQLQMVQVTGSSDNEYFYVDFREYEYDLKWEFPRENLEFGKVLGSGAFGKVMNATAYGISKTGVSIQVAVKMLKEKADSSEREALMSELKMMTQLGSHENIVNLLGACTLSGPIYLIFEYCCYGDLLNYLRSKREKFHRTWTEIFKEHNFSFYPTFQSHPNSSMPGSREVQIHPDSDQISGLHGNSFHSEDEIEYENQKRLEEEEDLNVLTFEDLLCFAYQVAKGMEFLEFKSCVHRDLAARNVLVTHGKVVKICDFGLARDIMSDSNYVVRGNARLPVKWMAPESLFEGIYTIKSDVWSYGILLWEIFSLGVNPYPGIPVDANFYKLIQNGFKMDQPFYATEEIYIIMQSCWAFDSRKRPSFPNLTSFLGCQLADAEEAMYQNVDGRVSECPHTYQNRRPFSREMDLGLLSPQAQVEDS
Protein cereblon/Receptor-type tyrosine-protein kinase FLT3 (Homo sapiens), P36888+Q96SW2 [UNDEFINED MUTATION], sequence (Q96SW2 whole entry, looked up, stated change not applied): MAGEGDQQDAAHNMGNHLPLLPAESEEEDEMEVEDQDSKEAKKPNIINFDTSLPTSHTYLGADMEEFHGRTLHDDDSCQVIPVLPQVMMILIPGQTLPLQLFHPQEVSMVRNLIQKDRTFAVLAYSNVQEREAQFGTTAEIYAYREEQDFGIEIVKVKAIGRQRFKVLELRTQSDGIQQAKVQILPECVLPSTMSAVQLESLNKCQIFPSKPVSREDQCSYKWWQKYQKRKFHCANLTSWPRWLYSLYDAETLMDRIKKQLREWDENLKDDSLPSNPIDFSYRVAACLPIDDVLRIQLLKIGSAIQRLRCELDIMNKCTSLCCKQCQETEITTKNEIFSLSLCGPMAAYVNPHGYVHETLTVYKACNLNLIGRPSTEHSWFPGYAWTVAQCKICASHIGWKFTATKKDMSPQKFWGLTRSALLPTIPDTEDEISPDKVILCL
Protein cereblon/Receptor-type tyrosine-protein kinase FLT3, sequence (P36888 whole entry, looked up, stated change not applied): as the sequence (P36888 whole entry, looked up, stated change not applied) above
Protein cereblon/Receptor-type tyrosine-protein kinase FLT3, sequence (Q96SW2 whole entry, looked up, stated change not applied): as the sequence (Q96SW2 whole entry, looked up, stated change not applied) above

Cc1c(NC(=O)CN2CCN(CC3CCN(c4ccc5c(c4)C(=O)N(C4CCC(=O)NC4=O)C5=O)CC3)CC2)c[nH]c1/C=C1\C(=O)Nc2ccc(F)cc21 (centres undefined)
Activity [1]: Dose-Dependent Effect
DC50 [2]: 7.4 nM
Activity [3]: Tde
Activity [4]: Dose-Dependent Effect
Activity [5]: Dose-Dependent Effect
Activity [6]: Dose-Dependent Effect
Activity [7]: Tde
Activity [8]: Active
Activity [9]: Active
Activity (MV4-11 [10]): Dose-Dependent Effect
Activity (MOLM-13): Dose-Dependent Effect
half-life [11]: 6.5 h
Tmax [12]: 6.2 h
half-life [13]: 3.8 h
Vdss [14]: 5.7 L/kg
Activity (MV4-11 [15]): Active
Activity [16]: Non-Toxic
Activity [17]: Non-Toxic
Activity [18]: Non-Toxic
Activity (MV4-11 [19]): Active
Activity (Mus musculus): Active
Activity (MV4-11 [20]): Active
Activity [21]: Active
Activity [22]: Active
IC50 (BaF3 [23]): 31.3 nM
IC50 (BaF3 [24]): 45.1 nM
half-life [25]: 1.88 h
CLint scaled [26]: 27 mL/min/kg
CLint scaled [27]: 92.7 mL/min/kg
CLhep predicted [28]: 11.3 mL/min/kg
CLhep predicted [29]: 20.5 mL/min/kg
IC50 (CYP3A4/CYP3A5): > 50000 nM
IC50 (Cytochrome P450 2B6): > 50000 nM
IC50 [30]: > 40000 nM
